Reference: ChEMBL document CHEMBL5360528, “A systematic review on the kappa opioid receptor and its ligands: New directions for the treatment of pain, anxiety, depression, and drug abuse” (Eur J Med Chem, 2022)
Where a SMILES comes first, the peptide text is derived from it. [ ]: non-standard residue; d: D form. βAla = NCCC(=O)O

How the values were obtained:
Mu-type opioid receptor [1] = target: T1, Mu-type opioid receptor (Homo sapiens, UniProt P35372); test: Binding affinity to MOR (unknown origin) assessed as inhibition constant by radioligand binding assay
T1 sequence (P35372 whole entry): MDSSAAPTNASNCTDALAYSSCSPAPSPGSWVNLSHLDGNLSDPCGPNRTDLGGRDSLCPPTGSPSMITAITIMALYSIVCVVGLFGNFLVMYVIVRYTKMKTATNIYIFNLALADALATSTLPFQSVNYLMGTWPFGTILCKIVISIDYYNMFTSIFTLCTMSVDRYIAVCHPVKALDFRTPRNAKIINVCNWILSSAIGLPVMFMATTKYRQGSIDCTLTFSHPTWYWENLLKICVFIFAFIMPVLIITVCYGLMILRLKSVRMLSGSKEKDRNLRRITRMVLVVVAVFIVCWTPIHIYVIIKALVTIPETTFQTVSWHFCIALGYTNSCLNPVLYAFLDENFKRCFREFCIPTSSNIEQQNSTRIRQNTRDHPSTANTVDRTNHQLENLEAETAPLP

[2] = target: T2, Delta-type opioid receptor (Homo sapiens, UniProt P41143); test: Binding affinity to DOR (unknown origin) assessed as inhibition constant by ratio ligand binding assay
T2 sequence (P41143 whole entry): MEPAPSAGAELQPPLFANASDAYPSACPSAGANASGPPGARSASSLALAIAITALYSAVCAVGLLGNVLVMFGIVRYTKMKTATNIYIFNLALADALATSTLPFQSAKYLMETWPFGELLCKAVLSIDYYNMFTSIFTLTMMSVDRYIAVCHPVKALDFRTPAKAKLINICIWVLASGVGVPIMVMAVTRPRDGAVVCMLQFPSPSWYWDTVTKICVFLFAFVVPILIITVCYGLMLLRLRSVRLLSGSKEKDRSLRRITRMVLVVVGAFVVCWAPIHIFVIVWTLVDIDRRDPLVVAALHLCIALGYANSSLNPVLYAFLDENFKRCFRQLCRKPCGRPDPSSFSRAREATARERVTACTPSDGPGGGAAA

Mus musculus [3] = test: Antinociceptive activity in CD-1 mouse assessed as maximum possible effect at 10 nmol, icv measured after 15 mins by tail-flick test; format: functional; conditions: 0.25 h
[4] = target: T2, Delta-type opioid receptor; test: Binding affinity to human DOR assessed as inhibition constant
Mus musculus [5] = test: Analgesic activity in sc dosed acetic acid induced mouse assessed as assessed as reduction in acetic acid induced writhing […]; format: functional
[6] = target: T3, Kappa-type opioid receptor (Homo sapiens, UniProt P41145); test: Binding affinity to wild type human KOR assessed as inhibition constant
T3 sequence (P41145 whole entry): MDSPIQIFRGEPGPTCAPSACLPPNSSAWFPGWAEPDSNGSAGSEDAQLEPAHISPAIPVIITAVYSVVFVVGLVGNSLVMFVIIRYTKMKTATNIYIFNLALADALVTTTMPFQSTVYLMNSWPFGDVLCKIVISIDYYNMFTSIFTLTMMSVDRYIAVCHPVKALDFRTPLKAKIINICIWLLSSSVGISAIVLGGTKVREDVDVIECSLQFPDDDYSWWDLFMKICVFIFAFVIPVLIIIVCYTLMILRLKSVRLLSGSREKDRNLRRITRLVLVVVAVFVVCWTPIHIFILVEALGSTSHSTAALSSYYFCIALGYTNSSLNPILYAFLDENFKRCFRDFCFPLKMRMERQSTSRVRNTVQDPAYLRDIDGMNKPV

Mus musculus [7] = species on record: Mus musculus; test: Analgesic activity in acetic acid induced mouse assessed as assessed as reduction in acetic acid induced writhing […]; format: functional
Mus musculus [8] = species on record: Mus musculus; test: Antinociceptive activity in CFA-induced mechanical allodynia CD1 mouse model assessed as reduction in mechanical allodynia; format: functional
Mus musculus [9] = test: Antinociceptive activity in CFA-induced mechanical allodynia in CD1 mouse model assessed as reduction in nociceptive response by measuring effective dose at ip administration; format: functional
Mus musculus [10] = test: Analgesic activity in iv dosed DBTC-induced neuropathic pain CD1 mouse model assessed as effective dose measured for 1 weeks; format: functional; conditions: CD1, 168 h
Mus musculus [11] = test: Antinociceptive activity in CFA-induced mechanical allodynia in CD1 mouse model assessed as reduction in nociceptive response by measuring effective dose at iv administration; format: functional
[12] = target: T2, Delta-type opioid receptor; test: Binding affinity to human DOR expressed in HEK293 cells assessed as inhibition constant by GTPgammaS assay; format: cell-based
Mu-type opioid receptor [13] = target: T1, Mu-type opioid receptor; test: Binding affinity to human MOR expressed in HEK293 cells assessed as inhibition constant by GTPgammaS assay; format: cell-based
[14] = target: T3, Kappa-type opioid receptor; test: Binding affinity to KOR (unknown origin) assessed as inhibition constant
[15] = target: T3, Kappa-type opioid receptor; test: Agonist activity at KOR (unknown origin) by measuring cAMP inhibition; format: functional
Mus musculus [16] = test: Antinociceptive activity in C57BL/6 mouse model of acute thermal pain assessed as paw withdrawal thermal threshold time at 1 mg/kg, po measured after 4 hrs by hot plate test; format: functional
Mu-type opioid receptor [17] = target: T1, Mu-type opioid receptor; test: Agonist activity at human MOR expressed in CHO-K1 cells assessed as inhibition of forskolin-stimulated cAMP accumulation incubated for 45 mins by cAMP HTRF assay; format: functional, cell-based
[18] = target: T2, Delta-type opioid receptor; test: Binding affinity human DOR expressed in CHO cells assessed as inhibition constant by radio ligand binding assay; format: cell-based
Mus musculus [19] = species on record: Mus musculus; test: Antinociceptive activity in C57BL/6 mouse model of acute thermal pain assessed as paw withdrawal thermal threshold time by hot plate test; format: functional
[20] = target: T3, Kappa-type opioid receptor; test: Agonist activity at wild type human KOR receptor expressed in CHO cells assessed as stimulation of [35S]GTPgammaS binding measured after 30 mins by scintillation counting assay; format: functional, cell-based
[21] = target: Kappa-type opioid receptor (Cavia porcellus, UniProt P41144); test: Agonist activity at KOR in guinea pig brain membranes assessed as stimulation of [35S]GTPgammaS binding measured after 1 hr by liquid scintillation counting analysis; format: functional, cell membranes, Membrane
Chain of Kappa-type opioid receptor (Cavia porcellus, UniProt P41144) (P41144 whole entry): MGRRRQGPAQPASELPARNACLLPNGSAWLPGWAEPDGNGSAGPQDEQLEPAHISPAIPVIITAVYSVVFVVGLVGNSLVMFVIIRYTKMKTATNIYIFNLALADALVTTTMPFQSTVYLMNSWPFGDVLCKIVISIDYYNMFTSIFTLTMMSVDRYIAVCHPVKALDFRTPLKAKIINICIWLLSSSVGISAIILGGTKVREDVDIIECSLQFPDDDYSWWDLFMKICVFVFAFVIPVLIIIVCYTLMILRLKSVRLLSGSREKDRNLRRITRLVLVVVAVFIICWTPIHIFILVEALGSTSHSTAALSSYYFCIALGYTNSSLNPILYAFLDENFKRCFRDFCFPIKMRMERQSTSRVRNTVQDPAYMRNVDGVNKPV

Mus musculus [22] = species on record: Mus musculus; test: Antinociceptive activity in Sprague-Dawley mouse assessed as inhibition of acetic acid-induced abdominal constrictions in presence of naloxone; format: functional
Mus musculus [23] = species on record: Mus musculus; test: Antinociceptive activity in Sprague-Dawley mouse assessed as inhibition of acetic acid-induced abdominal constrictions; format: functional
[24] = target: Kappa-type opioid receptor (Mus musculus, UniProt P33534); test: Agonist activity at KOR in mouse vas deferens assessed as inhibition of electrically evoked vas deferens contraction
Chain of Kappa-type opioid receptor (Mus musculus, UniProt P33534) (P33534 whole entry): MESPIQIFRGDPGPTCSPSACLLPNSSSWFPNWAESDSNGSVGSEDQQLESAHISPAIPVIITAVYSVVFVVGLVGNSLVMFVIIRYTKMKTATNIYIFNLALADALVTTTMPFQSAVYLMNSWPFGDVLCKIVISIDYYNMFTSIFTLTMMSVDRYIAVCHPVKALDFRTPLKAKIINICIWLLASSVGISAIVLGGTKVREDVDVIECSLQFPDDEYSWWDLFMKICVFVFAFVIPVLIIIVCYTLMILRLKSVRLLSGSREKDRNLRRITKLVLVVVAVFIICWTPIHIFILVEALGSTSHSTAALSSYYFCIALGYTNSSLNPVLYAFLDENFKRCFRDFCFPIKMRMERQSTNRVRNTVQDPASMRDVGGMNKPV

Mus musculus [25] = test: Antinociceptive activity in sc dosed Ach-induced mouse assessed as inhibition of abdominal constriction; format: functional
[26] = target: T3, Kappa-type opioid receptor; test: Binding affinity to KOR (unknown origin) expressed in CHO-K1 cell membrane assessed as stimulation of [35S]-GTPgammaS binding incubated for 1.5 hrs by scintillation spectroscopy analysis relative DAMGO; format: cell membranes
[27] = target: T3, Kappa-type opioid receptor; test: Binding affinity to human KOR expressed in HEK293 cells assessed as inhibition of forskolin-stimulated cAMP accumulation by HTRF assay; format: cell-based
Mus musculus [28] = test: Antinociceptive activity in ip dosed mouse assessed as inhibition of acetic acid-induced abdominal constrictions by writhing test; format: functional
[29] = target: Kappa-type opioid receptor (Cavia porcellus) (UniProt P41144); test: Agonist activity at KOR in guinea pig brain membranes assessed as stimulation of [35S]GTPgammaS binding relative to control; format: functional, cell membranes; conditions: Membrane, filed as agonist
Chain of Kappa-type opioid receptor (Cavia porcellus) (P41144 whole entry): as the sequence (P41144 whole entry) above

Mus musculus [30] = test: Antinociceptive activity in sc dosed mouse assessed as inhibition of acetic acid-induced abdominal constrictions by writhing test; format: functional
Mus musculus [31] = test: Antinociceptive activity in sc dosed mouse measured after 60 mins by warm water tail-flick assay; format: functional; conditions: 1 h
[32] = target: T3, Kappa-type opioid receptor; test: Binding affinity to human recombinant KOR assessed as inhibition constant
[33] = Half life in C57BL/6 mouse brain at 20 mg/kg, ip by LC-MS/MS analysis; format: ADME, organism-based
[34] = Half life in C57BL/6 mouse plasma at 20 mg/kg, ip by LC-MS/MS analysis; format: ADME, organism-based
[35] = Half life in C57BL/6 mouse […] at 20 mg/kg, ip by LC-MS/MS analysis; format: ADME, organism-based
[36] = Half life in human; format: ADME
[37] = Tmax in Sprague-Dawley rat at 1 mg/kg, iv by LC-MS analysis; format: ADME, organism-based; conditions: in vivo

Cc1ccc(CSc2nnc(-c3ccccn3)n2Cc2ccco2)cc1C(F)(F)F
Ki (Mu-type opioid receptor [1]): 1900 nM | Ki [2]: 5350 nM

O=C(N[C@@H]1CC[C@@]2(O)[C@H]3Cc4ccc(O)c5c4[C@@]2(CCN3CC2CC2)[C@H]1O5)c1ccc2ccccc2c1
ED50 (Mus musculus [3]): 18.7 pmol

O=C(N[C@@H]1C=C[C@H]2[C@H]3Cc4ccc(O)c5c4[C@@]2(CCN3CC2CC2)[C@H]1O5)c1cccc(I)c1
Ki [4]: 0.08 nM | Ki (Mu-type opioid receptor [1]): 0.021 nM | ED50 (Mus musculus [5]): 1 mg/kg | Ki [6]: 0.006 nM | ED50 (Mus musculus [7]): 0.33 mg/kg

CC(C)C[C@@H](NC(=O)[C@@H](Cc1ccccc1)NC(=O)[C@H](N)Cc1ccccc1)C(=O)N[C@H](CCCCN)C(=O)N1CCC(N)(C(=O)O)CC1 [listing 1 of 2 here]
ED50 (Mus musculus [8]): 0.07 mg/kg | ED50 (Mus musculus [9]): 0.3 mg/kg | ED50 (Mus musculus [10]): 0.3 mg/kg | ED50 (Mus musculus [11]): 0.38 mg/kg

N=C(N)Nc1ccc2c3c([nH]c2c1)[C@@H]1Oc2c(O)ccc4c2[C@@]12CCN(CC1CC1)[C@H](C4)[C@]2(O)C3
Ki [12]: 81.8 nM | Ki (Mu-type opioid receptor [13]): 20.3 nM

CC(C)=CCN1CC[C@]2(C)c3cc(O)ccc3C[C@H]1[C@H]2C [(+)-PENTAZOCINE]
Ki [14]: 7.6 nM | EC50 [15]: 40 nM | Ki [2]: 62 nM

CCCC[C@@H](NC(=O)[C@@H](CC1=CC=CCC1)NC(=O)[C@H](N)Cc1ccccc1)C(=O)N[C@H](CCCNC(=N)N)C(=O)NCc1ccncc1
AD50 (Mus musculus [16]): 0.007 mg/kg | Ki [14]: 0.24 nM

COC(=O)[C@@H]1C[C@H](OC(=O)C2=Cc3ccccc3C2)C(=O)[C@H]2[C@@]1(C)CC[C@H]1C(=O)O[C@H](c3ccoc3)C[C@]21C
EC50 (Mu-type opioid receptor [17]): 49.5 nM | Ki [14]: 49.7 nM | Ki (Mu-type opioid receptor [1]): 538 nM | EC50 [15]: 853 nM

CN1CC[C@]23c4c5ccc(O)c4O[C@H]2C(=O)CC[C@@]3(OCCCc2ccccc2)[C@H]1C5
Ki [18]: 0.13 nM | Ki [6]: 0.3 nM | Ki (Mu-type opioid receptor [13]): 0.073 nM | AD50 (Mus musculus [19]): 0.0007 mg/kg

O=C(O[C@@H]1[C@@H]2[C@H]3C[C@@H](C[C@H]2C(=O)O[C@H]1c1ccoc1)OC3=O)c1ccccc1
EC50 [20]: 2 nM | Ki [6]: 9 nM | Ki [21]: > 5000 nM

C[C@H]1[C@@H]2Cc3ccc(O)cc3[C@]1(C)CCN2CC1CC1
ED50 (Mus musculus [22]): 0.077 mg/kg | ED50 (Mus musculus [23]): 0.47 mg/kg

COC(=O)N1CCN(C(=O)Cc2ccc(Cl)c(Cl)c2)C(CN2CCCC2)C1 (configuration not stated)
IC50 [24]: 0.041 nM | ED50 (Mus musculus [25]): 0.00052 mg/kg

C[N+]1(CC2CC2)CC[C@]23c4c5ccc(O)c4O[C@H]2C(=O)CC[C@@]3(O)[C@H]1C5 (some centres not stated) [METHYLNALTREXONE]
Ki (Mu-type opioid receptor [1]): 10 nM | EC50 [15]: 6.7 nM | Ki [26]: ~30 nM

O=C1CNC(=O)[C@H](Cc2ccccc2)NC(=O)[C@@H](Cc2c[nH]c3ccccc23)NC(=O)CCN1 (cyclo(FG[βAla][dW]))
Ki [4]: > 10 nM | Ki [27]: > 10 nM

C[C@H]1[C@H]2Cc3ccc(C(N)=O)cc3[C@@]1(C)CCN2CC1CC1
ED50 (Mus musculus [28]): 0.21 nmol | Ki [4]: 4.9 nM

CCCCN(CCc1ccccc1)CCc1cccc(O)c1
Ki (Mu-type opioid receptor [1]): 360 nM | Ki [2]: 2700 nM | Activity [29]: 45.5%

C[C@H]1[C@H]2Cc3ccc(O)cc3[C@@]1(C)CCN2CCc1ccccc1
ED50 (Mus musculus [30]; Mus musculus, read-out: ED50): 6.3 mg/kg

CC(C)C[C@@H](NC(=O)[C@@H](CC1=CC=CCC1)NC(=O)[C@H](N)Cc1ccccc1)C(=O)N[C@H](CCCN)C(=O)N1CCOCC1
AD50 (Mus musculus [16]): 0.013 mg/kg | Ki [14]: 0.08 nM

CCCC[C@@H](NC(=O)[C@@H](CC1=CC=CCC1)NC(=O)[C@H](N)Cc1ccccc1)C(=O)N[C@H](CCCNC(=N)N)C(N)=O
Ki [14]: < 1 nM

CN(C(=O)/C=C/c1ccoc1)[C@@H]1CC[C@@]2(O)[C@H]3Cc4ccc(O)c5c4[C@@]2(CCN3CC2CC2)[C@H]1O5 [NALFURAFINE]
ED50 (Mus musculus [31]; Mus musculus, read-out: ED50): 0.003 mg/kg | ED50 (Mus musculus [30]; Mus musculus, read-out: ED50): 0.062 mg/kg

CN(C(=O)C(c1ccccc1)c1ccccc1)[C@H](CN1CC[C@H](O)C1)c1ccccc1 [ASIMADOLINE]
Ki [32]: 5.6 nM

O=C(N[C@@H]1CC[C@@]2(O)[C@H]3Cc4ccc(O)c5c4[C@@]2(CCN3CC2CC2)[C@H]1O5)c1cc[n+](Cc2ccccc2)cc1
Ki [4]: 722 nM | Ki [14]: 3.46 nM | Ki (Mu-type opioid receptor [1]): 3.46 nM

Oc1ccc2c(c1)[C@@]13CCCC[C@H]1[C@@H](C2)N(CC1CCC1)CC3 [BUTORPHAN]
ED50 (Mus musculus [31]): 7.3 nmol | ED50 (Mus musculus [30]): 0.79 nmol

COC(=O)[C@@H]1C[C@H](OC(C)=O)[C@H](O)[C@H]2[C@@]1(C)CC[C@H]1C(=O)O[C@H](c3ccoc3)C[C@]21C [1-ALPHA-HYDROXYSALVINORIN A]
half-life [33]: 3.75 h | half-life [34]: 3.75 h | half-life [35]: 3.75 h

CC(C)C[C@@H](NC(=O)[C@@H](Cc1ccccc1)NC(=O)[C@H](N)Cc1ccccc1)C(=O)N[C@H](CCCCN)C(=O)N1CCC(N)(C(=O)O)CC1 [listing 2 of 2 here]
Ki [14]: 0.32 nM | Ki (Mu-type opioid receptor [1]): > 10000 nM

C#Cc1occc1[C@@H]1C[C@@]2(C)[C@@H](CC[C@@]3(C)[C@H](C(=O)OC)C[C@H](OC(C)=O)C(=O)[C@@]32C)C(=O)O1
Ki [14]: 2.5 nM

Cc1cc(C)cc([C@@H]2CCCN2Cc2ccc(Oc3ccc(C(N)=O)cc3F)cc2)c1 [ATICAPRANT]
half-life [36]: 21 h | Tmax [37]: 1 h

CC(C)=CCN1CC[C@@]2(C)c3cc(O)ccc3CC1C2C (some centres not stated) [PENTAZOCINE]
Ki [14]: 7.6 nM | EC50 [15]: 40 nM | Ki [2]: 62 nM
